Experimental data: patent US20250172566A1, “SACCHARIDE SENSING SYSTEMS” (CARBOMETRICS LIMITED, priority 2022, published 2025)

Assay: Fluorescent solution phase glucose responsive assay (pH 7.4, 298 K)
Details: 20 mM D-glucose; GBM22 5 μM; FIM 1 μM; medium A; Ex 470 nm, Emmax 590 nm
Experimental: Fluorescence spectroscopy was performed on either a HORIBA Duetta or BMG Labtech CLARIOstar plus plate reader. Emission spectra were obtained using the appropriate excitation wavelength and at a temperature of either 298 or 310 K and at pH 7.4 unless otherwise stated. Data collection and analysis were performed using EzSpec software by HORIBA or CLARIOstar MARS software by BMG Labtech. Further analysis and processing were performed in Microsoft Excel.
A solution of GBM and FIM at the required concentrations were created in the appropriate media. The emission spectrum of the assay was then acquired by exciting at the designated excitation wavelength to obtain the baseline emission intensity for the assay. Aliquots of 2 M D-glucose (in the same media) were then added to give the required final glucose concentrations (e.g. 15 μL of 2 M D-glucose in 3 mL gives a final D-glucose concentration of 10 mM) and the assay allowed to reach equilibration. The emission spectra were collected after each addition of D-glucose and compared to the original baseline emission, monitoring at the typical emission maximum (Emmax), and the percentage increase or decrease recorded. Emission spectra acquired on either a Horiba Duetta fluorometer or Clariostar plus plate reader.
The glucose responsive fluorescence emission for different combinations of glucose binding molecules (GBM) and fluorescent inhibitor molecules (FIM) at various concentrations and in various media was tested as described above. All results obtained at pH 7.4 and 298 K unless otherwise stated.
All results obtained at pH 7.4 and 298 K unless otherwise stated.
Table 4 provides the composition of the assay media used as the code assigned to each media as used in Tables 1 to 3.

Cc1ccc2n1[B-](F)(F)[N+]1=C(/C=C/c3ccc(C(=O)O)cc3)C=CC1=C2c1ccccc1OCc1cn(CCOCCOCCOCCO[C@@H]2O[C@H](CO)[C@@H](O)[C@H](O)[C@H]2O)nn1 [FIM31]
Change in Emmax for FIM at a particular D-glucose concentration: 90%
